Series [1] in a line: physchem. The settings on record: water, thermodynamic from solid.
Method: Analyses were performed using the Perkin Elmer Lambda 5 UV/Vis Spectrophotometer.
Two sets of standards were prepared by serial dilution of: • 1. 10% poloxamer P407/1% Propofol solution in water. • 2. 1% Propofol solution in ethanol (EtOH).
Dilutions were performed with water and EtOH respectively. The standards were further diluted one hundred fold prior to measurement of their UV absorption spectra recorded.
For series [2] the following is noted: 84% water/16% propylene glycol, ambient temperature.

≈ marks a conversion by molar mass, not a printed value.

The term thermodynamic solubility denotes the concentration in solution at equilibrium with solid. As to `CC(C)c1cccc(C(C)C)c1O` [Propofol, 2,6-bis(1-methylethyl)phenol], the solubility (thermodynamic) in series [1] is approximately 1000 µM (≈ 178 µg/mL). Further, the “increase of solubility of Propofol over water alone” value in series [2] is given as “approximately 50%”.

These data come from patent US7166303B2, “Anesthetic formulations” (Maelor Pharmaceuticals Limited, priority 2000, dated 2007).
